Experimental data reported in patent US20240182407A1, “QUINOLINE COMPOUND SALT OR CRYSTAL FORM, PREPARATION METHOD THEREFOR, AND APPLICATION THEREOF” (Nanjing Zenshine Pharmaceuticals Co., Ltd., priority 2021, published 2024).
≈ marks a conversion by molar mass, not a printed value.

Legend:
[1] = Solubility in simulated gastrointestinal fluids (SGF, FeSSIF, FaSSIF) at 37° C.; assay type: physicochemical; details: for Solubility: 37° C.; for Solubility / pH of filtrate: listed as Sample 5; for solubility at 30 min / solubility at 2 h / solubility at 24 h: 37 °C, thermodynamic from solid
Procedure: The solubilities of Compound A and p-toluenesulfonate (Sample 5, crystal form I) in simulated gastrointestinal fluids (SGF, FeSSIF and FaSSIF) at 37° C. were tested.
About 7.5 mg of Compound A and p-toluenesulfonate were separately added to 1.5 mL of three biological vehicles to prepare suspensions. All the suspensions were placed in a shaker at 37° C. and shaken at 200 rpm for 24 h, and about 0.5 mL was sampled separately at 0.5 h, 2 h and 24 h for filtration. The obtained filtrates were subjected to HPLC analysis and pH measurement, and the filter cakes were respectively measured by XRPD.

[2] = biological target: T1, PI3Kγ (p110γ) (Homo sapiens, UniProt P48736); test: ADP-Glo kinase inhibition, PI3Kγ; details: read-out: IC50 PI3Kγ Biochemical
T1 construct: purchased Invitrogen PR8641C
T1 sequence (P48736 whole entry): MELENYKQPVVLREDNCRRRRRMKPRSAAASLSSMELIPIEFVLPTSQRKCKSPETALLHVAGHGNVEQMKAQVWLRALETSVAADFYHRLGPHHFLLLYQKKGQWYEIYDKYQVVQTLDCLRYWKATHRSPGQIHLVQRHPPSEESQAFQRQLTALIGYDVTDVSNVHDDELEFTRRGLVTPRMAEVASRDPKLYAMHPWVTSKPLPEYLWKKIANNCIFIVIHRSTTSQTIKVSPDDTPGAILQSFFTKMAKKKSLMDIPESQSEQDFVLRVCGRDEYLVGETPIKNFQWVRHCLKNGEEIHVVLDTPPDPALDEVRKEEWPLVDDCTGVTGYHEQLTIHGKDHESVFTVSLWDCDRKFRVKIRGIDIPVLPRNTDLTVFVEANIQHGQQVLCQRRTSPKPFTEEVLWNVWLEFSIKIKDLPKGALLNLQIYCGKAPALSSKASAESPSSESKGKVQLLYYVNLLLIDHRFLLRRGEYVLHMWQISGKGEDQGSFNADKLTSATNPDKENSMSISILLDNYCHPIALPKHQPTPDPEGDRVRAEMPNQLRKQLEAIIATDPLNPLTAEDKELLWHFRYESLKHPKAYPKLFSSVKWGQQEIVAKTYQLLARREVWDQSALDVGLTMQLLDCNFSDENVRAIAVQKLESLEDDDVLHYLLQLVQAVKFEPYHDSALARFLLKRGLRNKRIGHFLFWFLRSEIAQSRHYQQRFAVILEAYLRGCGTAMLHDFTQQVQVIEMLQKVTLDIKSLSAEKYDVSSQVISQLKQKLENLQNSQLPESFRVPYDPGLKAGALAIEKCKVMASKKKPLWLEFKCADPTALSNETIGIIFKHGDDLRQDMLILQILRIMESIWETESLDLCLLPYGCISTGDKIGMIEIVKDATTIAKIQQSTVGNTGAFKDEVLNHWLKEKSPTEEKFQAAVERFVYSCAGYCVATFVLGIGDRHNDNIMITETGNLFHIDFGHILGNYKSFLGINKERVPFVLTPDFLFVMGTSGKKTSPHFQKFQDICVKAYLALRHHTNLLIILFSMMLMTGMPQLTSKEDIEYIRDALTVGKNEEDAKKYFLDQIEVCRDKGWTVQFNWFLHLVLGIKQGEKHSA
Procedure: (§1) In Example 7, the inhibitory effects of Sample 6 prepared in Example 6 above on kinases PI3Kα, PI3Kβ, PI3Kγ and PI3Kδ were tested.
(§2) The kinases used in the experiment were respectively purchased from: • PI3Kα (p110α/p85α), purchased from Invitrogen, under Cat. No. PV4788; • PI3Kβ (p110β), purchased from eurofins, under Cat. No. 14-603M; • PI3Kδ (p110δ/p85a), purchased from Invitrogen, under Cat. No. PV6452; and • PI3Kγ (p110γ), purchased from Invitrogen, under Cat. No. PR8641C. • Firstly, a 1× kinase buffer solution was prepared, which comprised: • 50 mM HEPES, pH 7.5 • 3 mM MgCl2 • 1 mM EGTA • 100 mM NaCl • 0.03% CHAPS • 2 mM DTT
(§3) On kinases PI3Kα, PI3Kβ and PI3Kγ, the final detection concentration of the compound was 10 μM. 100× concentration was prepared, i.e., 1000 μM. 90 μL of 100% DMSO was added to the second well in row A on a 96-well plate, 10 μL of a 10 mM compound solution was then added, and 3-fold serial dilution was made to obtain a total of 10 concentrations.
(§4) 50 μL of 100% DMSO was transferred to two empty wells as Max well and Min well, respectively.
(§5) 50 nL of the compound was transferred into a 384-well plate using ECHO550.
(§6) Preparation of 2× kinase solution: the kinase was added to a 1× kinase buffer to prepare a 2× enzyme solution. […]
(§7) Finally, the chemiluminescence values were read from Envision 2104 Multi-label Reader and subjected to curve fitting, and IC50 was calculated.

[3] = biological target: T2, PI3Kα (p110α/p85α) (Homo sapiens, UniProt P42336); test: ADP-Glo kinase inhibition, PI3Kα; details: read-out: IC50 PI3Kα Biochemical
T2 construct: purchased Invitrogen PV4788
T2 sequence (P42336 whole entry): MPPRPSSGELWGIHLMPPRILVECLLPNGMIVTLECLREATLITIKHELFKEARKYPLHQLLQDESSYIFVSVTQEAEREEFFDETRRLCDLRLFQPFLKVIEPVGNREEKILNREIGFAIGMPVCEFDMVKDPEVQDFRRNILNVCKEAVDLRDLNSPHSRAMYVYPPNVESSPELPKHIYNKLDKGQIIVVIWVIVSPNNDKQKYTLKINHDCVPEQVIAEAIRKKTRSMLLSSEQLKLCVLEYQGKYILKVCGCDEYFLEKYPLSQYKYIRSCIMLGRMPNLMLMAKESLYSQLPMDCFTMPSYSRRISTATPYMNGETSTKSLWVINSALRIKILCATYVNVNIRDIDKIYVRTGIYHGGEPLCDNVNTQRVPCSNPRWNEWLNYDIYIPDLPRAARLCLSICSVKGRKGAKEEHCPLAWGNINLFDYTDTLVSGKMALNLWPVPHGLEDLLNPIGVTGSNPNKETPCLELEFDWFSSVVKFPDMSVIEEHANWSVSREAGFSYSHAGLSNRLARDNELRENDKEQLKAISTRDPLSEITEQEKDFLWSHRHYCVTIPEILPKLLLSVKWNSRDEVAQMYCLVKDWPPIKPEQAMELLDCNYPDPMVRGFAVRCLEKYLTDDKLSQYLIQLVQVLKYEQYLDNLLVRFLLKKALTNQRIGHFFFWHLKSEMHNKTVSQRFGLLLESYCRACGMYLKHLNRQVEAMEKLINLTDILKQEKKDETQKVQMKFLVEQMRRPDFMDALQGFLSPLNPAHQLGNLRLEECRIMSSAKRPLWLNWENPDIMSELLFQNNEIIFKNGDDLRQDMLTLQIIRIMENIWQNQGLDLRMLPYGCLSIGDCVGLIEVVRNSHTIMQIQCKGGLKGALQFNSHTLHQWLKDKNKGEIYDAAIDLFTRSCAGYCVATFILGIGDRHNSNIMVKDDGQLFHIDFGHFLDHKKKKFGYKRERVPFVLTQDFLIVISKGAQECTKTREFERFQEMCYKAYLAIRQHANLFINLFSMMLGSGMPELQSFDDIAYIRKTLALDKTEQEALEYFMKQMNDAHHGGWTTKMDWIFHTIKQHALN
T2 sequence (P27986 whole entry partner): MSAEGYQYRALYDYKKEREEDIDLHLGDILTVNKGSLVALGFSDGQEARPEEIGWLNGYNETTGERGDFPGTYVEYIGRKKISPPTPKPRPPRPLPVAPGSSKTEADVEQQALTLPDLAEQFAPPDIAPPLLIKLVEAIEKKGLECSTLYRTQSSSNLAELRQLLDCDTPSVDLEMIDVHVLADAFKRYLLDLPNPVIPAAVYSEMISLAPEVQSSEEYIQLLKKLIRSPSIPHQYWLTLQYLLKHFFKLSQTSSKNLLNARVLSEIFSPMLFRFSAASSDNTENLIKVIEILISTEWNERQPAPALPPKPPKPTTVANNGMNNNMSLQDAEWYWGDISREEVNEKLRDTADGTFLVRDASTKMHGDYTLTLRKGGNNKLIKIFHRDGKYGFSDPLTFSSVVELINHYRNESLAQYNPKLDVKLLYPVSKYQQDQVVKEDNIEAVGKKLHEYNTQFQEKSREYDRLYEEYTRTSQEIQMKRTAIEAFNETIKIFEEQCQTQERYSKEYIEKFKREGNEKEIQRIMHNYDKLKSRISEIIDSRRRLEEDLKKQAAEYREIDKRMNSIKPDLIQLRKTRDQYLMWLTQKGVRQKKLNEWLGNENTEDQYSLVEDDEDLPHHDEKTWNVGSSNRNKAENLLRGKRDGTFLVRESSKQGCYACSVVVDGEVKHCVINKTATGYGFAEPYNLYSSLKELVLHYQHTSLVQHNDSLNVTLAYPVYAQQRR
Procedure: as §1, §2, §3, §4, §5, §6, §7

[4] = biological target: T3, PI3Kγ (Mus musculus, UniProt Q9JHG7); test: Akt phosphorylation in Raw264.7 cells stimulated by c5α (AlphaLISA); details: phosphorylation of Akt, read-out: IC50 PI3Kγ Cell-based
T3 construct: host or cells: Raw264.7 cells
T3 sequence (Q9JHG7 whole entry): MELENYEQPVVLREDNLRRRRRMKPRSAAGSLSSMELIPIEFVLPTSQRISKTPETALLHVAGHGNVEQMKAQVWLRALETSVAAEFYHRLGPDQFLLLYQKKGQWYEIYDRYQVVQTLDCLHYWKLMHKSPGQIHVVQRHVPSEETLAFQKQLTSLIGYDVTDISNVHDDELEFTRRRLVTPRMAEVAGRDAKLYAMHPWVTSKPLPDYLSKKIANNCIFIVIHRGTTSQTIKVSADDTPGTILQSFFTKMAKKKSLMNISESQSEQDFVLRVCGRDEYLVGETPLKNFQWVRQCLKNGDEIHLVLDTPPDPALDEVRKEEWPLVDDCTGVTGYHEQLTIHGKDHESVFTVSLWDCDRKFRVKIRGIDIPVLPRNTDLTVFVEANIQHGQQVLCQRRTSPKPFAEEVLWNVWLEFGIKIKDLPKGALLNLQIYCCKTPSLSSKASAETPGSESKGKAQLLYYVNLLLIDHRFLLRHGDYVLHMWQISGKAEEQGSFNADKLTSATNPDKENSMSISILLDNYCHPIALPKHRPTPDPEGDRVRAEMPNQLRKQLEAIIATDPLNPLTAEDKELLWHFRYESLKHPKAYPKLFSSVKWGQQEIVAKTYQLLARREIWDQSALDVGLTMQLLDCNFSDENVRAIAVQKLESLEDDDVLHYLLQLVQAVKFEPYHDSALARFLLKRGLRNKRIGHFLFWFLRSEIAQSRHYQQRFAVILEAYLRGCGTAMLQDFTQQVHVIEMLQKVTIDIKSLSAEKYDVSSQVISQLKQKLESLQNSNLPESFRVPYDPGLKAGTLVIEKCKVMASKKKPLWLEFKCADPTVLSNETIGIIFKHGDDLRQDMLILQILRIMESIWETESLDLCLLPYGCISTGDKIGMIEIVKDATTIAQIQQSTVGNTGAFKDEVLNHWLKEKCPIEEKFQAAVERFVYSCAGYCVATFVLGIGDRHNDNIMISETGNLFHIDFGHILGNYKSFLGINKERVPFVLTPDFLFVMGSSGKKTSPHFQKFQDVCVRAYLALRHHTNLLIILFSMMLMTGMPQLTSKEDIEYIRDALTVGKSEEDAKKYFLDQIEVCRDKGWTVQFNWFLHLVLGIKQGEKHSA
Procedure: In addition, taking Sample 6 as an example, the inhibitory effects thereof on PI3Kα, PI3Kβ, PI3Kγ and PI3Kδ in corresponding cells were determined. The activity of PI3Kα was detected by the phosphorylation level of Akt in C2Cl2 cells stimulated by IGF-1, the activity of PI3Kβ was detected by the phosphorylation level of Akt in PC-3 cells stimulated by LPA, the activity of PI3Kγ was detected by the phosphorylation level of Akt in Raw264.7 cells stimulated by c5α, and the activity of PI3Kδ was detected by the phosphorylation level of Akt in Raji cells stimulated by IgM. The phosphorylation level of Akt in cells was determined by means of AlphaLISA technique from PerkinElemer.
The C2C12 cells, PC-3 cells, Raw264.7 cells and Raji cells were all purchased from ATCC.

[5] = test system: SU-DHL-4; test: Proliferation of lymphoma cell line in vitro, SU-DHL-4; assay type: cell-based; details: Homo sapiens, read-out: absolute IC50 (AbsIC50), proliferation
[6] = test system: SU-DHL-6; test: Proliferation of lymphoma cell line in vitro, SU-DHL-6; assay type: cell-based; details: Homo sapiens, read-out: absolute IC50 (AbsIC50), proliferation
[7] = test system: mouse breast cancer 4T1; test: Mouse breast cancer 4T1 subcutaneous transplantation tumor model; assay type: in vivo
Description: WT cell subcutaneous transplantation tumor model.

[8] = Crystal form stability under high humidity (XRPD); assay type: physicochemical; details: RT/92.5% RH, 11 days
Description: (§8) In addition, the stability of p-toluenesulfonate crystal form I (Sample 8) under grinding and high humidity conditions was investigated.
For example, the p-toluenesulfonate crystal form I sample was placed at RT/92.5% RH for 11 days and then measured by XRPD.

[9] = Crystal form stability under grinding (XRPD); assay type: physicochemical; details: ground in a mortar for 2 min
Procedure: as §8
A certain amount of p-toluenesulfonate crystal form I was ground in a mortar for 2 min and then measured by XRPD.

- Solubility ([1]; FaSSIF (pH 6.52), 30 min): 570 µg/mL (≈ 1.42 mM)
- Solubility ([1]; FaSSIF (pH 6.52), 2 h): 560 µg/mL (≈ 1.4 mM)
- Solubility ([1]; FaSSIF (pH 6.52), 24 h): 550 µg/mL (≈ 1.37 mM)
- pH of filtrate ([1]; FaSSIF (pH 6.52), 0.5 h): 6.27
- pH of filtrate ([1]; FaSSIF (pH 6.52), 2 h): 6.10
- pH of filtrate ([1]; FaSSIF (pH 6.52), 24 h): 5.38
- pH of filtrate ([1]; FeSSIF (pH 4.99), 0.5 h): 4.81
- pH of filtrate ([1]; FeSSIF (pH 4.99), 2 h): 4.80
- pH of filtrate ([1]; FeSSIF (pH 4.99), 24 h): 4.69
- solubility at 30 min ([1]; FeSSIF, pH 4.99, fessif, FeSSIF (pH 4.99), 30 min): 1310 µg/mL (≈ 3.27 mM)
- solubility at 2 h ([1]; FeSSIF, pH 4.99, fessif, FeSSIF (pH 4.99), 2 h): 2740 µg/mL (≈ 6.84 mM)
- solubility at 24 h ([1]; FeSSIF, pH 4.99, fessif, FeSSIF (pH 4.99), 24 h): 3570 µg/mL (≈ 8.92 mM)
- pH of filtrate ([1]; SGF (pH 1.21), 0.5 h): 1.05
- pH of filtrate ([1]; SGF (pH 1.21), 2 h): 1.10
- pH of filtrate ([1]; SGF (pH 1.21), 24 h): 1.11
- solubility at 30 min ([1]; SGF, pH 1.21, simulated gastric fluid, SGF (pH 1.21), 30 min): > 5440 µg/mL
- solubility at 2 h ([1]; SGF, pH 1.21, simulated gastric fluid, SGF (pH 1.21), 2 h): > 5400 µg/mL
- solubility at 24 h ([1]; SGF, pH 1.21, simulated gastric fluid, SGF (pH 1.21), 24 h): > 5350 µg/mL
- IC50 [2]: 4.8 nM
- IC50 [3]: 117 nM
- IC50 [4]: 29 nM
- IC50 [5]: < 100 nM
- IC50 [6]: < 100 nM
- crystal form after grinding (XRPD) [9]: still p-toluenesulfonate crystal form I
Compound: C[C@H](Nc1nc(N)nc(N)c1C#N)c1cc2ccc(F)cc2nc1-c1ccccn1 [p-toluenesulfonate of Compound A]
- effect on tumor volume growth [7]: significant inhibitory effect
- crystal form after high humidity (XRPD) [8]: crystal form of the sample did not change
